# Test results reported in ChEMBL document CHEMBL3885881, “DrugMatrix”.
# Species on record: Rattus norvegicus
# Test: DrugMatrix - Regimen: Daily Repeat
# Assay type: toxicity, organism-based, Sprague-Dawley
# Set-up: regimen Daily Repeat, gender Male, age 6-8 weeks
# Conditions: in vivo, po, route oral GAVAGE, vehicle .5 % CMC; for ABSOLUTE EOSINOPHIL / ABSOLUTE LYMPHOCYTE / ABSOLUTE MONOCYTE / ABSOLUTE SEGMENTED NEUTROPHIL / BASOPHIL / EOSINOPHIL / ERYTHROCYTE COUNT / HEMATOCRIT / HEMOGLOBIN / LEUKOCYTE COUNT / LYMPHOCYTE / MEAN CORPUSCULAR HEMOGLOBIN CONCENTRATION / MEAN CORPUSCULAR VOLUME / MONOCYTE / NEUTROPHIL / NUCLEATED RED BLOOD CELLS / PLATELET COUNT / ABSOLUTE BASOPHIL: tissue Blood; for ALANINE AMINOTRANSFERASE / ALBUMIN / ALKALINE PHOSPHATASE / BLOOD UREA NITROGEN / CARBON DIOXIDE / CHLORIDE / CHOLESTEROL / CREATINE PHOSPHOKINASE / CREATININE / GLUCOSE / LACTATE DEHYDROGENASE / LIPASE / PHOSPHORUS / POTASSIUM / SODIUM / TOTAL BILIRUBIN / TOTAL PROTEIN: tissue Plasma
# [1] = 60 mg/kg, 120 h, dose level High, time 5 day
# [2] = […], 72 h, dose 1.5 mg/Kg, dose level Low, time 3 day
# [3] = […], 120 h, dose 1.5 mg/Kg, dose level Low, time 5 day
structure (smiles),measurement,setting,value
CO[C@H]1C[C@@H]2CC[C@@H](C)[C@@](O)(O2)C(=O)C(=O)N2CCCC[C@H]2C(=O)O[C@H]([C@H](C)C[C@@H]2CC[C@@H](O)[C@H](OC)C2)CC(=O)[C@H](C)/C=C(\C)[C@@H](O)[C@@H](OC)C(=O)[C@H](C)C[C@H](C)/C=C/C=C/C=C/1C [SIROLIMUS],ABSOLUTE EOSINOPHIL,[1],0 CELLS/uL
same,ABSOLUTE LYMPHOCYTE,[1],6680.33 CELLS/uL
same,ABSOLUTE MONOCYTE,[1],49.67 CELLS/uL
same,ABSOLUTE SEGMENTED NEUTROPHIL,[1],670 CELLS/uL
same,BASOPHIL,[1],0%
same,EOSINOPHIL,[1],0%
same,ERYTHROCYTE COUNT,[1],6.63 x10E6/uL
same,HEMATOCRIT,[1],40%
same,HEMOGLOBIN,[1],15.77 G/DL
same,LEUKOCYTE COUNT,[1],7.4 x10E3/uL
same,LYMPHOCYTE,[1],90.33%
same,MEAN CORPUSCULAR HEMOGLOBIN CONCENTRATION,[1],39.4 G/DL
same,MEAN CORPUSCULAR VOLUME,[1],60.43 fL
same,MONOCYTE,[1],0.67%
same,NEUTROPHIL,[1],9%
same,NUCLEATED RED BLOOD CELLS,[1],0 /100WBC
same,PLATELET COUNT,[1],709.33 x10E3/uL
same,ALANINE AMINOTRANSFERASE,[1],49.33 u/L
same,ALBUMIN,[1],4.2 G/DL
same,ALKALINE PHOSPHATASE,[1],311.67 u/L
same,BLOOD UREA NITROGEN,[1],20.67 mg/dL
same,CARBON DIOXIDE,[1],28.33 mmol/L
same,CHLORIDE,[1],99.67 MEQ/L
same,CHOLESTEROL,[1],81.67 mg/dL
same,CREATINE PHOSPHOKINASE,[1],479 u/L
same,CREATININE,[1],0.24 mg/dL
same,GLUCOSE,[1],202.33 mg/dL
same,LACTATE DEHYDROGENASE,[1],231.33 u/L
same,LIPASE,[1],9.67 u/L
same,PHOSPHORUS,[1],10.43 mg/dL
same,POTASSIUM,[1],4.97 MEQ/L
same,SODIUM,[1],145.27 MEQ/L
same,TOTAL BILIRUBIN,[1],0.2 mg/dL
same,TOTAL PROTEIN,[1],6.23 G/DL
same,ABSOLUTE BASOPHIL,[2],0 CELLS/uL
same,ABSOLUTE EOSINOPHIL,[2],267 CELLS/uL
same,ABSOLUTE LYMPHOCYTE,[2],13791 CELLS/uL
same,ABSOLUTE MONOCYTE,[2],267 CELLS/uL
same,ABSOLUTE SEGMENTED NEUTROPHIL,[2],1575 CELLS/uL
same,BASOPHIL,[2],0%
same,EOSINOPHIL,[2],1.67%
same,ERYTHROCYTE COUNT,[2],5.63 x10E6/uL
same,HEMATOCRIT,[2],36.33%
same,HEMOGLOBIN,[2],13.8 G/DL
same,LEUKOCYTE COUNT,[2],15.9 x10E3/uL
same,LYMPHOCYTE,[2],87%
same,MEAN CORPUSCULAR HEMOGLOBIN CONCENTRATION,[2],38 G/DL
same,MEAN CORPUSCULAR VOLUME,[2],64.5 fL
same,MONOCYTE,[2],1.67%
same,NEUTROPHIL,[2],9.67%
same,NUCLEATED RED BLOOD CELLS,[2],0 /100WBC
same,PLATELET COUNT,[2],1156 x10E3/uL
same,ALANINE AMINOTRANSFERASE,[2],52.33 u/L
same,ALBUMIN,[2],4.23 G/DL
same,ALKALINE PHOSPHATASE,[2],361.33 u/L
same,BLOOD UREA NITROGEN,[2],17.33 mg/dL
same,CARBON DIOXIDE,[2],27.33 mmol/L
same,CHLORIDE,[2],99 MEQ/L
same,CHOLESTEROL,[2],79.33 mg/dL
same,CREATINE PHOSPHOKINASE,[2],205.33 u/L
same,CREATININE,[2],0.21 mg/dL
same,GLUCOSE,[2],162 mg/dL
same,LACTATE DEHYDROGENASE,[2],201.67 u/L
same,LIPASE,[2],10 u/L
same,PHOSPHORUS,[2],12.33 mg/dL
same,POTASSIUM,[2],6.49 MEQ/L
same,SODIUM,[2],144 MEQ/L
same,TOTAL BILIRUBIN,[2],0.2 mg/dL
same,TOTAL PROTEIN,[2],6 G/DL
same,ABSOLUTE BASOPHIL,[3],0 CELLS/uL
same,ABSOLUTE EOSINOPHIL,[3],0 CELLS/uL
same,ABSOLUTE LYMPHOCYTE,[3],12718.33 CELLS/uL
same,ABSOLUTE MONOCYTE,[3],96 CELLS/uL
same,ABSOLUTE SEGMENTED NEUTROPHIL,[3],1619 CELLS/uL
same,BASOPHIL,[3],0%
same,EOSINOPHIL,[3],0%
same,ERYTHROCYTE COUNT,[3],5.45 x10E6/uL
same,HEMATOCRIT,[3],33.87%
same,HEMOGLOBIN,[3],13.8 G/DL
same,LEUKOCYTE COUNT,[3],14.43 x10E3/uL
same,LYMPHOCYTE,[3],87.67%
same,MEAN CORPUSCULAR HEMOGLOBIN CONCENTRATION,[3],40.77 G/DL
same,MEAN CORPUSCULAR VOLUME,[3],62.2 fL
same,MONOCYTE,[3],0.67%
same,NEUTROPHIL,[3],11.67%
same,NUCLEATED RED BLOOD CELLS,[3],0 /100WBC
same,PLATELET COUNT,[3],1286.33 x10E3/uL
same,ALANINE AMINOTRANSFERASE,[3],92.33 u/L
same,ALBUMIN,[3],3.8 G/DL
same,ALKALINE PHOSPHATASE,[3],328.67 u/L
same,BLOOD UREA NITROGEN,[3],17.33 mg/dL
same,CARBON DIOXIDE,[3],20.33 mmol/L
same,CHLORIDE,[3],99 MEQ/L
same,CHOLESTEROL,[3],66.67 mg/dL
same,CREATINE PHOSPHOKINASE,[3],1089 u/L
same,CREATININE,[3],0.25 mg/dL
same,GLUCOSE,[3],251.33 mg/dL
same,LACTATE DEHYDROGENASE,[3],725.33 u/L
same,LIPASE,[3],11 u/L
same,PHOSPHORUS,[3],14.07 mg/dL
same,POTASSIUM,[3],6.17 MEQ/L
same,SODIUM,[3],142.93 MEQ/L
same,TOTAL BILIRUBIN,[3],0.2 mg/dL
same,TOTAL PROTEIN,[3],5.43 G/DL
